Laboratory results from patent US9434711B2 (Janssen Pharmaceutica, NV, priority 2007, dated 2016).
Read-outs that look alike come from different tables or passages of the source.

Target: canine TRPM8 (Canis lupus familiaris, UniProt Q1A7N1)
Test: In Vitro Canine TRPM8 Functional Assay (Ca2+ fluorescence, icilin activation)
Format: cell-based
Settings: for inhibition at 0.2 µM: read-out: % Inh @ 0.2; for IC50: read-out: IC50; for inhibition at 0.5 µM: compound at 0.5 μM, read-out: % Inh @ 0.5
In short: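 Readout is the intracellular Ca2+ fluorescence change, measured by FLIPR or FDSS, in HEK293 cells stably expressing canine TRPM8. Potency (EC50 or IC50) is fitted from eight concentrations averaged over quadruplicate wells.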

[1] = compound at 0.2 μM, canine TRPM8, icilin activation
[2] = HEK293 cells stably expressing canine TRPM8, icilin activation, eight-point dose-response
[3] = canine TRPM8, icilin activation
[4] = 0.2 μM compound, HEK293 cells stably expressing canine TRPM8, icilin activation

Chain of canine TRPM8 (Q1A7N1 1-1104): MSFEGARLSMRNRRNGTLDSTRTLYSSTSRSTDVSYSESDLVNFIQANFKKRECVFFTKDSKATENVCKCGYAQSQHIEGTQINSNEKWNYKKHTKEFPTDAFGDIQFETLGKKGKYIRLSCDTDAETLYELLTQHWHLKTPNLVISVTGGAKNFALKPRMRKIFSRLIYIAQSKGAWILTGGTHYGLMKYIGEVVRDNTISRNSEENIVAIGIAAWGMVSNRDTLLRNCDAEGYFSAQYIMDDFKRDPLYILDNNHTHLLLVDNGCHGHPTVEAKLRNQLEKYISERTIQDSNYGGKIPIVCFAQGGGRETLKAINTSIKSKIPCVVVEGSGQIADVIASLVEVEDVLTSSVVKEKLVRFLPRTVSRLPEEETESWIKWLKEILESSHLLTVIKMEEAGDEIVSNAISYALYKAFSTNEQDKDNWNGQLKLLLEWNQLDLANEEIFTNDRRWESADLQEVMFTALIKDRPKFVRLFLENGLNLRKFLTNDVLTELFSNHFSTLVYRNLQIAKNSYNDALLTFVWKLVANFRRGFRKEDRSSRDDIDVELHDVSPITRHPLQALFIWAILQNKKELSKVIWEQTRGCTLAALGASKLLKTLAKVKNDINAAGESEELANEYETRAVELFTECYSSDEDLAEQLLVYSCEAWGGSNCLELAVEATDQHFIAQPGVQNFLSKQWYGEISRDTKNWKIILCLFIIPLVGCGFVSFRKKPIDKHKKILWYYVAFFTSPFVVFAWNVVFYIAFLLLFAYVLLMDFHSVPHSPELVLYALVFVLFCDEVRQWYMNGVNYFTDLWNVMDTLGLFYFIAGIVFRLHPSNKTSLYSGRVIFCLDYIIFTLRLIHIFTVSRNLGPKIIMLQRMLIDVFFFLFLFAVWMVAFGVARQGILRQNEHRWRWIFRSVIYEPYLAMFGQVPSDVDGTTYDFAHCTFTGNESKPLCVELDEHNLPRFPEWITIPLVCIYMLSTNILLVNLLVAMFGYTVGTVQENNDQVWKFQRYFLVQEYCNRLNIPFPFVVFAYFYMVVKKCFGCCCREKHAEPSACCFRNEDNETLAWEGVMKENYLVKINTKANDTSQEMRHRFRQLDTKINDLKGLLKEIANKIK

| Molecule | inhibition at 0.2 µM [1] [%] | IC50 [2] [nM] | also measured |
| --- | --- | --- | --- |
| CC(=O)Nc1ccc(S(=O)(=O)N(Cc2ccc(F)c(C(F)(F)F)c2)c2sc3ccccc3c2C)cc1Cl [Compound 336, N-(3-Methyl-benzo[b]thiophen-2-yl)-N-(4-fluoro-3-trifluoromethyl-benzyl)-(3-chloro-4-acetamide)-benzenesulfonamide] | – | 15 | % Inh @ 0.2 (μM) [1]: 101% |
| CN(C)S(=O)(=O)N(CC(F)F)c1sc2ccccc2c1Br [Compound 268, N-(3-Bromo-benzo[b]thiophen-2-yl)-N-(2,2-difluoro-ethyl)-N′,N′-dimethylsulfamide] | 67 | – | – |
| Cc1c(N(Cc2ccc(F)c(C(F)(F)F)c2)S(=O)(=O)c2ccc3ncsc3c2)sc2ccccc12 [Compound 65, N-(4-Fluoro-3-trifluoromethyl-benzyl)-N-(3-methyl-benzo[b]thiophen-2-yl)-benzothiazole-6-sulfonamide] | 97 | 17 | – |
| CCN(c1sc2ccccc2c1C)S(=O)(=O)c1ccc(C(=O)O)cc1 [Compound 403, N-(3-Methyl-benzo[b]thiophen-2-yl)-N-(ethyl)-4-carboxy-benzenesulfonamide] | 52 | – | – |
| CC(C)(C)OC(=O)NCCN(c1sc2ccccc2c1Cl)S(=O)(=O)c1ccccc1 [Compound 86, N-(3-Chloro-benzo[b]thiophen-2-yl)-N-[2-(carbo-tert-butoxyamino)ethyl]-benzenesulfonamide] | – | 53 | inhibition at 0.5 µM [3]: 101% |
| COC(=O)c1ccc(S(=O)(=O)N(CCF)c2cc3ccccc3s2)cc1 [Compound 843, N-(Benzo[b]thiophen-2-yl)-N-(2-fluoro-ethyl)-4-carbomethoxy-benzenesulfonamide] | – | – | inhibition at 0.2 µM [4]: 31% |
| N-(3-Methyl-benzo[b]thiophen-2-yl)-N-(4-fluoro-3-trifluoromethyl-benzyl)-4-thiomethyl-pyridin-3-yl-sulfonamide [Compound 378] | – | 97 | % Inh @ 0.2 (μM) [1]: 85% |
| CC(C)CN(c1sc2ccccc2c1Br)S(=O)(=O)c1ccc(C(=O)O)cc1 [Compound 452, N-(3-Bromo-benzo[b]thiophen-2-yl)-N-(isobutyl)-4-carboxy-benzenesulfonamide] | 101 | 18 | – |
| O=S(=O)(c1ccccc1)N(Cc1ccc(F)c(C(F)(F)F)c1)c1cc2ccccc2s1 [Compound 61, N-(Benzo[b]thiophen-2-yl)-N-(4-fluoro-3-trifluoromethyl-benzyl)-benzenesulfonamide] | – | 52.4 | inhibition at 0.5 µM [3]: 95% |
| Cc1c(N(CCC2CC2)S(=O)(=O)c2cccc(C#N)c2)sc2ccccc12 [Compound 549, N-(2-Cyclopropyl-ethyl)-N-(3-methyl-benzo[b]thiophen-2-yl)-3-cyano-benzenesulfonamide] | 104 | 15.9 | – |
| NC(=O)c1c(N(Cc2ccc(F)c(C(F)(F)F)c2)S(=O)(=O)c2ccccc2)sc2ccccc12 [Compound 459, N-(3-Carbamoyl-benzo[b]thiophen-2-yl)-N-(4-fluoro-3-trifluoromethyl-benzyl)-benzenesulfonamide] | 102 | 9 | – |
| Cc1c(N(Cc2ccc(F)c(C(F)(F)F)c2)S(=O)(=O)c2cc(C(=O)O)cs2)sc2ccccc12 [Compound 527, N-(3-Methyl-benzo[b]thiophen-2-yl)-N-(4-fluoro-3-trifluoromethyl-benzyl)-4-carboxy-thien-2-ylsulfonamide] | 101 | 5 | – |
| O=S(=O)(c1ccccc1)N(CCN1CCOCC1)c1sc2ccccc2c1Br [Compound 237, N-(3-Bromo-benzo[b]thiophen-2-yl)-N-(2-morpholin-4-yl-ethyl)-benzenesulfonamide] | 87 | 24.8 | inhibition at 0.5 µM [3]: 92% |
| CC(C)(O)c1c(N(Cc2ccc(F)c(C(F)(F)F)c2)S(=O)(=O)c2ccccc2)sc2ccccc12 [Compound 316, N-(4-Fluoro-3-trifluoromethyl-benzyl)-N-[3-(1-hydroxy-1-methyl-ethyl)-benzo[b]thiophen-2-yl]-benzenesulfonamide] | 101 | 10 | – |
| CNS(=O)(=O)N(Cc1ccc(F)c(C(F)(F)F)c1)c1sc2ccccc2c1C [Compound 533, N-(4-Fluoro-3-trifluoromethyl-benzyl)-N-(3-methylbenzo[b]thiophen-2-yl)-N′-methyl-sulfamide] | 102 | 32 | – |
| CCS(=O)(=O)N(CC1CC1)c1sc2ccccc2c1C [Compound 112, N-(Cyclopropylmethyl)-N-(3-methyl-benzo[b]thiophen-2-yl)-ethanesulfonamide] | 95 | 30.2 | – |
| Cc1c(N(Cc2ccc(F)cc2C(F)(F)F)S(=O)(=O)c2ccc(C(=O)O)cc2)sc2ccccc12 [Compound 522, N-(3-Methyl-benzo[b]thiophen-2-yl)-N-(4-fluoro-2-trifluoromethyl-benzyl)-4-carboxy-benzenesulfonamide] | 101 | 4 | – |
| CCS(=O)(=O)N(Cc1ccc(F)c(C(F)(F)F)c1)c1sc2ccccc2c1[C@@H](C)O [Compound 535] | – | 1 | % Inh @ 0.2 (μM) [1]: 102% |
| C=C(C)c1c(N(Cc2cc(F)c(F)c(OC)c2F)S(=O)(=O)CC)sc2ccccc12 [Compound 803, N-(3-Isopropenyl-benzo[b]thiophen-2-yl)-N-(2,4,5-trifluoro-3-methoxy-benzyl)-ethanesulfonamide] | – | – | inhibition at 0.2 µM [4]: 101%; IC50 (HEK293 cells stably expressing canine TRPM8, icilin activation, average of two or more determinations): 30.8 nM |
| CCS(=O)(=O)N(Cc1cccc(OC)c1F)c1sc2ccccc2c1C(C)(C)O [Compound 776, N-(2-Fluoro-3-methoxy-benzyl)-N-[3-(1-hydroxy-1-methyl-ethyl)-benzo[b]thiophen-2-yl]-ethanesulfonamide] | 95 | 6.7 | – |

Second part, led by results:

| inhibition at 0.2 µM [1] [%] | IC50 [2] [nM] | Molecule | also measured |
| --- | --- | --- | --- |
| 69 | – | CCCCN(c1sc2ccccc2c1Br)S(=O)(=O)c1ccc(-c2noc(=S)[nH]2)cc1 [Compound 481, N-(3-Bromo-benzo[b]thiophen-2-yl)-N-(butyl)-4-(5-thioxo-4,5-dihydro-[1,2,4]oxadiazol-3-yl)-benzenesulfonamide] | – |
| 95 | 23.1 | COC(=O)CS(=O)(=O)N(Cc1ccc(F)c(C(F)(F)F)c1)c1sc2ccccc2c1C [Compound 791, N-(4-Fluoro-3-trifluoromethyl-benzyl)-N-(3-methyl-benzo[b]thiophen-2-yl)-carbomethoxy-methanesulfonamide] | – |
| 95 | – | O=S(=O)(c1ccc(Cl)nc1)N(Cc1ccc(F)c(C(F)(F)F)c1)c1sc2ccccc2c1Cl [Compound 338] | – |
| 102 | 4 | O=c1[nH]c(-c2ccc(S(=O)(=O)N(CCCCC(F)(F)F)c3sc4ccccc4c3Br)cc2)ns1 [Compound 712, N-(3-Bromo-benzo[b]thiophen-2-yl)-N-(5,5,5-trifluoro-pentyl)-4-(5-oxo-4,5-dihydro-[1,2,4]thiadiazol-3-yl)-benzenesulfonamide] | – |
| 101 | 31.7 | CS(=O)(=O)Nc1c(Cl)cc(S(=O)(=O)N(CCCCC(F)(F)F)c2sc3ccccc3c2Cl)cc1Cl [Compound 682, 3,5-Dichloro-N-(3-chloro-benzo[b]thiophen-2-yl)-4-methanesulfonylamino-N-(5,5,5-trifluoro-pentyl)-benzenesulfonamide] | – |
| 102 | – | O=S(=O)(CC(F)(F)F)N(Cc1ccc(F)c(C(F)(F)F)c1)c1sc2ccccc2c1CO [Compound 704, N-(3-Hydroxymethyl-benzo[b]thiophen-2-yl)-N-(4-fluoro-3-trifluoromethyl-benzyl)-2,2,2-trifluoro-ethanesulfonamide] | – |
| 76 | 71 | O=C(O)c1ccc(S(=O)(=O)N(CC(F)F)c2sc3ccccc3c2Br)cc1 [Compound 276, N-(3-Bromo-benzo[b]thiophen-2-yl)-N-(2,2-difluoro-ethyl)-4-carboxy-benzenesulfonamide] | – |
| 95 | 7 | O=S(=O)(c1ccc(-c2nnn[nH]2)cc1)N(Cc1ccc(F)c(C(F)(F)F)c1)c1cc2ccccc2s1 [Compound 424, N-(Benzo[b]thiophen-2-yl)-N-(4-fluoro-3-trifluoromethyl-benzyl)-4-(1H-tetrazol-5-yl)-benzenesulfonamide] | – |
| 96 | 43 | COc1cccc(S(=O)(=O)N(Cc2ccc(F)c(C(F)(F)F)c2)c2sc3ccccc3c2Cl)c1 [Compound 180, N-(3-Chloro-benzo[b]thiophen-2-yl)-N-(4-fluoro-3-trifluoromethyl-benzyl)-3-methoxy-benzenesulfonamide] | – |
| 101 | 7.3 | Cc1c(N(CCC(F)(F)F)S(=O)(=O)c2ccccc2)sc2ccccc12 [Compound 615, N-(3-Methyl-benzo[b]thiophen-2-yl)-N-(3,3,3-trifluoro-propyl)-benzenesulfonamide] | – |
| – | 15.4 | Cn1cnc(S(=O)(=O)N(Cc2ccc(F)c(F)c2)c2sc3ccccc3c2Br)c1 [Compound 150, N-(3-Bromo-benzo[b]thiophen-2-yl)-N-(3,4-difluoro-benzyl)-1-methyl-1H-imidazole-4-sulfonamide] | inhibition at 0.5 µM [3]: 100% |
| – | 60.8 | CCS(=O)(=O)N(Cc1ccc(F)c(F)c1)c1cc2ccccc2s1 [Compound 35, N-(Benzo[b]thiophen-2-yl)-N-(3,4-difluoro-benzyl)-ethanesulfonamide] | inhibition at 0.5 µM [3]: 100% |
| 102 | 21.9 | Cc1c(N(Cc2ccc(F)c(C(F)(F)F)c2)S(=O)(=O)c2ccc(C(=O)NO)cc2)sc2ccccc12 [Compound 555, 4-([4-Fluoro-3-trifluoromethyl-benzyl)-(3-methyl-benzo[b]thiophen-2-yl)-sulfamoyl]-N-hydroxy-benzamide] | – |
